Consider two substances from US9951389B2, “Diagnostic markers for treating cell proliferative disorders with telomerase inhibitors” (Geron Corporation, priority 2012, dated 2018).

Data set [1] concerns animal tumor models, including ovarian and lung, both small cell and non-small cell. The note with it: cited from earlier work.
The test system of data set [2] is epidermoid carcinoma, breast epithelium, renal carcinoma, renal adenocarcinoma, pancreatic, brain, colon, prostate, leukemia, lymphoma, myeloma, epidermal …. The note with it: administered alone, in vitro; cited from earlier work.
For data set [3], the system named is advanced stage non-small cell lung cancer. Put plainly: Imetelstat NSC Lung Cancer Phase II (CP14B-012) Study, progression-free survival analysis by tumor telomere length subgroup. Format: in vivo, human. The note with it: for responsiveness (progression-free survival) of patients with short telomeres vs medium-long telomeres: telomere length subgroups by qPCR. From the text:
The purpose of the NSC Phase II (CP14B-012) Study was to evaluate the efficacy and safety of imetelstat (GRN163L) as maintenance therapy for patients with advanced stage non-small cell lung cancer who have not progressed after 4 cycles of platinum based therapy. Participants were randomized in a 2:1 ratio to imetelstat plus standard of care versus standard of care alone. Participants who received bevacizumab with their induction chemotherapy continued to receive bevacizumab in this study.
The primary outcome measures were progression-free survival, defined as the time from randomization to documented disease progression or death, whichever occurred earlier, as determined by the investigator's assessment according to RECIST (Response Evaluation Criteria in Solid Tumors). The secondary outcome measures were objective response, time to all-cause mortality, and safety and tolerability (assessed by the incidence, nature, and severity of adverse events, laboratory abnormalities, and vital signs.
The patients were divided into two arms. In the experimental arm, patients received Imetelstat plus the standard of care (Bevacizumab or observation). Specifically, 9.4 mg/kg of Imetelstat (GRN163L) was given to patients over a 2 hour IV infusion on Day 1 and Day 8 of each 21 day cycle until disease progression. If administered, Bevacizumab was given on Day 1 of each 21-day cycle, with dosage and duration according to the FDA-approved Bevacizumab package insert.
In the control arm, patients received Bevacizumab or observation. If administered, Bevacizumab was given on Day 1 of each 21-day cycle, with dosage and duration according to the FDA-approved Bevacizumab package insert.
Samples were obtained from 61 of the 116 patients enrolled in the NSC Phase II (CP14B-012) Study described above. […] Each assay produced data for between 7 and 14545 foci from six regions (‘fields’) on a slide. The area and fluorescent intensity were recorded for each of the foci.
The IN Cell developer Toolbox 1.9 (GE Corp.) was utilized to quantitate the average telomere length from cells obtained from biological samples and subjected to telo-FISH. This software was used to draw lines around cell nuclei based on the location of the DAPI stain, and around cell telomeres based on the location of the telomere-specific fluorescence. Once each nucleus and telomere was encircled, the software calculated the intensity and the area of each individual telomere in the cells and determined the average telomere length for the cells derived from the biological sample according to Equation 1: 1.376×log2(intensity)−6.215×√(area) [Equation 1]. Results
This Example followed all of the procedures of Example 2 with the following changes to the qPCR protocol.
On the technique in general: In qPCR the cycle at which signal appears reflects the starting amount.

Like-named read-outs stand apart in the source and are kept apart here. [nps] = N3'→P5' thiophosphoramidate linkage

For the substance “GRN163: oligonucleotide having sequence TAGGGTTAGACAA (SEQ ID NO:3) and N3′→P5′ thiophosphoramidate (NPS) linkages (all [nps], sugars by position and methylation of C not given here)”, the “therapeutic efficacy in animal tumor models” value in data set [1] is listed as “therapeutically effective”. Moreover, the “inhibitory activity in cell culture” value in data set [2] is given as “has shown inhibitory activity”.

Turning to Imetelstat, the “progression-free survival hazard ratio (95% CI)” value in data set [3] is 0.83 (0.36, 1.89); in data set [3] (Telo-FISH quartile split, small intensity/area (15/59, 25.4%), Example 3, Imetelstat vs control), 0.26 (0.06, 1.1); in data set [3] (medium-long telomere subgroup (65%), second qPCR protocol of Example 4, Imetelstat vs control), 0.65 (0.27, 1.56); in data set [3] (short telomere subgroup (33%), qPCR of Example 2, Imetelstat vs control arm) it was 0.32 (0.1, 1.02); in data set [3] (short telomere subgroup (35%), second qPCR protocol of Example 4, Imetelstat vs control), 0.55 (0.17, 1.84). For the same substance, the “progression-free survival median (95% CI)” value is 4.7 (1.41, NA) in data set [3] (Telo-FISH quartile split, small intensity/area (15/59, 25.4%, shortest telomeres), Example 3, Imetelstat arm); 3.03 (1.58, 4.47) in data set [3] (medium-long telomere subgroup (34 of 52 samples, 65%), second qPCR protocol of Example 4, Imetelstat arm); 2.8 (1.51, 4.18) in data set [3] (medium-long telomere subgroup (38 of 57 samples, 67%), qPCR of Example 2, Imetelstat arm); 1.91 (1.22, NA) in data set [3] (short telomere subgroup (18 of 52 samples, 35%), second qPCR protocol of Example 4, Imetelstat arm); 4.05 (1.25, NA) in data set [3] (short telomere subgroup (19 of 57 samples, 33%), qPCR of Example 2, Imetelstat 9.4 mg/kg IV Day 1 and 8 of 21 day cycle plus standard of care). Moreover, the “progression-free survival events/N” value in data set [3] (medium-long telomere subgroup (67%), qPCR of Example 2, Imetelstat arm) was 21/26; in data set [3] (short telomere subgroup (33%), qPCR of Example 2, Imetelstat arm), 8/11. Besides, the “responsiveness (progression-free survival) of patients with short telomeres vs medium-long telomeres” value in data set [3] (Example 2) and in data set [3] (Example 4) was “significantly more responsive compared to controls” throughout.
